Data set [1] deals with EGFR-mutated NSCLC lines. Also on record: method as in PMID 18060032. The following applies: multiple EGFR-mutated NSCLC lines; cited from earlier work.
Data set [2] deals with EGFR-mutated NSCLC. As to the kind of experiment: Efficacy in phase 1b study per RECIST version 1.1 (ORR, DoR, PFS, OS). Format: in vivo, human. On the procedure:
Imaging by computed tomography (CT) with contrast was performed at baseline, every 8 weeks during year 1 and every 12 weeks thereafter. If a patient had brain metastases, brain magnetic resonance imaging (MRI) was repeated on the same schedule.

For data set [3], the system named is patients with EGFR TKI-naive, EGFR-mutated NSCLC. As to the kind of experiment: Safety in phase 1b dose-escalation study: DLTs and adverse events (CTCAE version 4.03). The text has this:
This was an open-label, dose-escalation phase 1b study, which comprised a dose-escalation phase, followed by a planned, randomized, expansion phase of the combination of erlotinib plus momelotinib vs. erlotinib alone (ClinicalTrials.gov Identifier: NCT02206763). An erlotinib lead-in was utilized during the dose-escalation phase since erlotinib’s toxicities of rash and diarrhea onset in the first 2–3 weeks of treatment allowing for (i) dose adjustment for erlotinib-related toxicities as per clinical standard of care prior to combination with momelotinib; (ii) examination of the impact of momelotinib on erlotinib steady-state pharmacokinetics; and (iii) accurate assessment of toxicity attribution during the combination treatment period.
Patients were screened within 28 days of the start of study treatment and cycles were defined as 28 days. Erlotinib was self-administered orally once daily (QD) at least 1 h before or 2 h after a meal, with doses permitted at 50, 75, 100, or 150 mg. Dose reductions were permitted for management of erlotinib-related toxicity such as rash and diarrhea. Momelotinib was dose escalated following a standard 3 + 3 design starting at 100 mg QD (Table 1). Momelotinib was self-administered orally QD or twice daily (BID) (Table 1), with the latter planned dosing frequency differing from that used in myelofibrosis trials. Study treatment continued until disease progression, unacceptable toxicity, or consent withdrawal.
The primary endpoint was the incidence of dose-limiting toxicities (DLTs). Physical exams and safety labs were performed on day 1 of cycle 1, day 15 of cycle 1, and on the first day of each cycle thereafter. Adverse events (AEs) were coded using the Medical Dictionary for Regulatory Activities (MedDRA), graded according to the Common Terminology Criteria for Adverse Events (CTCAE) version 4.03, and collected until 30 days after the last dose of the study treatment.
DLTs were assessed during the first 28 days of combined erlotinib and momelotinib treatment and defined as clinically significant AEs related to study treatment. Prespecified hematologic DLTs only included grade 4 neutropenia (absolute neutrophil count [ANC] < 500/μL) and grade 4 thrombocytopenia (platelet count < 25,000/μL). Important exceptions for related grade 3 nonhematologic toxicities included grade 3 nausea or vomiting ≤ 48 h duration, diarrhea or rash that improved to grade 0 to 1 within 21 days of interruption of erlotinib, and alanine aminotransferase (ALT) or aspartate aminotransferase (AST) ≥ 5 times the upper limit of normal (ULN) that improved to ≤ 3 times the ULN within 21 days. Treatment delays of ≥ 28 days due to a treatment-emergent AEs (TEAEs) were also considered DLTs.
(§1) Any patient who received ≥ 1 dose of study drug was included in the safety and efficacy analyses. Descriptive statistics were used to summarize study characteristics, DLTs, and AEs, including by dose level. ORR was summarized with corresponding two-sided 90% exact confidence intervals (CIs) using the binomial distribution. Both OS and PFS were summarized using Kaplan–Meier estimates and corresponding 90% CIs. Patient concentration data and PK parameters for erlotinib, momelotinib, and its major metabolite GS-644603 were summarized by dose level using descriptive statistics.

Data set [4] concerns pancreatic adenocarcinoma. On the set-up: method as in PMID 30105668. The settings on record: momelotinib added to nab-paclitaxel and gemcitabine; cited from earlier work.
A short description of data set [5]: Steady-state pharmacokinetics of momelotinib and metabolite GS-644603 (LC–MS/MS, noncompartmental). Format: in vivo, human. The settings on record: for half-life / Cmax / Tmax: day 15 of cycle 1; for half-life / Tmax: median (Q1, Q3); for Cmax: mean (%CV). On the procedure:
(§2) Prior to momelotinib dosing, blood samples were collected before a dose of erlotinib and at 0.5, 1, 2, 4, 6, 8, and 24 h after erlotinib dosing. On day 15 of cycle 1, blood samples were collected at the same time points after dosing with momelotinib and erlotinib (the 24-h time point was only applicable for momelotinib QD dosing). The concentrations of momelotinib and its major metabolite GS-644603 were evaluated using a liquid chromatography-tandem mass spectrometry (LC–MS/MS) assay with solid phase extraction validated over the range of 0.5–1000 ng/mL for each analyte. The concentration of erlotinib was determined using an LC–MS/MS assay with protein precipitation validated over the range of 5–5000 ng/mL. […] Pharmacokinetic (PK) parameters were estimated using standard noncompartmental methods with Phoenix WinNonlin® software (Certara, Princeton, NJ).
as §1

In data set [6] the test system is pSTAT3 in IL-6–stimulated lymphocytes. As to the kind of experiment: pSTAT3 phospho-flow cytometry on whole blood of patients after 2 weeks on momelotinib (exploratory). The settings on record: whole blood of 8 patients, data not shown. In kind it is cell-based, human. For orientation: Flow cytometry measures light scatter and fluorescence of single cells or particles in a stream.

For data set [7], the system named is JAK1/2-mediated STAT3 phosphorylation in IL-6–stimulated human peripheral blood mononuclear cells. The settings on record: read-out: mean half maximal effective concentration, inhibition of JAK1/2-mediated STAT3 phosphorylation; cited from earlier work.
A short description of data set [8]: Pharmacokinetics of erlotinib during monotherapy and in combination with momelotinib (LC–MS/MS). Format: in vivo, human. The following applies: momelotinib 100 mg QD, 200 mg QD, 100 mg BID. On the procedure:
as §2, §1

The test system of data set [9] is patients with KRAS-mutated NSCLC. Also on record: method as in PMID 30087028. The following applies: cited from earlier work.
The test system of data set [10] is PC-9 xenograft tumors and EGFR-mutant transgenic mice. Also on record: method as in PMID 24238495. The following applies: cited from earlier work.
Data set [11] deals with HCC827 xenograft model. On the set-up: method as in doi:10.1158/1538-7445.AM2018-2938. The following applies: cited from earlier work.
Setting [12] is: human, in vivo, oral, momelotinib analyte, momelotinib 100 mg QD + erlotinib, n = 2.
The mark [13] stands for this setting: human, in vivo, oral, momelotinib analyte, momelotinib 200 mg QD + erlotinib, n = 2.
Where [14] appears, read: momelotinib 200 mg QD vs 100 mg QD, with erlotinib, momelotinib analyte.
Setting [15] is: with erlotinib, compared with ref 35.

The values that follow come from publication PMC8739290, “A phase 1b study of erlotinib and momelotinib for the treatment of EGFR-mutated, tyrosine kinase inhibitor-naive metastatic non-small cell lung cancer” (Cancer Chemotherapy and Pharmacology, 2021).

As usually defined, the half-life is the time in which the quantity being followed falls by half. Usually Cmax stands for the highest concentration seen after dosing.

Where two headings read alike, the source gives them in different places.

Regarding `CC(C)(C)c1nc2c3ccc(F)cc3c3c(=O)[nH]ccc3c2[nH]1` [P6], in data set [1], the “effect on cell cycle” value is “cell-cycle arrest at the G2/M phase”, the “effect on colony formation” value is listed as “suppressed colony formation” and the “effect on phosphorylated-STAT3 (pSTAT3)” value is recorded as “uniformly abrogated pSTAT3”.

Turning to `N#CCNC(=O)c1ccc(-c2ccnc(Nc3ccc(N4CCOCC4)cc3)n2)cc1` [momelotinib], the “reductions from baseline in sum of diameters of target lesions, range” value in data set [2] (momelotinib + erlotinib, across dose levels) is 23.1 to 71.7%. Also, the “mean best percentage change in the sum of diameters of target lesions” value in data set [2] (momelotinib + erlotinib, across dose levels, N = 11) is on record as −42.5 ± 17.1%. In data set [2] (momelotinib + erlotinib, all dose levels, 6 of 11 patients, 90% CI 27.1–80.0), the “overall response rate (ORR), confirmed, all partial” value was found to be 54.5%. In addition, the “progressive disease (PD) as best response” value in data set [2] (momelotinib + erlotinib, 1 patient, dose level 2B) is on record as 9.1%. In data set [2] (momelotinib + erlotinib, 4 of 11 patients), the stable disease is given as 36.4%. In addition, the “median duration of response (DoR)” value in data set [2] (momelotinib + erlotinib, 90% CI 4.4–9.6) is 7.2 months. Besides, the “median PFS” value in [2] (momelotinib + erlotinib, Kaplan–Meier, 90% CI 6.2–12.4) came out at 9.2 months. In addition, the “median OS” value in [2] (momelotinib + erlotinib, data finalization April 24, 2017) is on record as “not reached”. Further, in data set [2] (patient at dose level 2B, momelotinib 100 mg BID + erlotinib), the “longest DoR” value was 11.2 months. For the same compound, the “grade 1 reactivation of hepatitis B” value in data set [3] (1 year after start of momelotinib + erlotinib, led to discontinuation of both) is listed as 1 patient. For the same compound, the treatment-related deaths result in data set [3] (all dose levels, momelotinib + erlotinib) is “no treatment-related deaths observed”. In addition, in [3] (human, in vivo), the “dose interruptions of momelotinib” value was 5 n, the “dose reductions of momelotinib (due to AEs)” value is 2 n and the “patients who discontinued momelotinib for AEs” value was found to be 27.3%. Moreover, the “maximum tolerated dose (MTD) of momelotinib” value in data set [3] (in combination with standard dosing of erlotinib, 3 + 3 design, DLTs in first 28 days) is listed as 200 mg QD. In data set [4], the “efficacy vs historical control chemotherapy” value is listed as “did not improve efficacy”. Further, the half-life in [5] (human, blood, oral, momelotinib analyte, momelotinib 100 mg BID + erlotinib, n = 4) is 516 min. For the same compound, the Cmax in [5] (human, in vivo, oral, momelotinib analyte, momelotinib 100 mg BID + erlotinib, n = 4) was 884 ng/mL. Further, in [5] (setting [12]), the Cmax came to 528 ng/mL and the half-life was 708 min. In data set [5] (setting [13]), the Cmax came to 852 ng/mL and the half-life worked out at 612 min. Besides, the Tmax in data set [5] (human, in vivo, oral, momelotinib analyte, momelotinib 200 mg QD + erlotinib, n = 2, read-out: Tmax) amounted to 1.5 h. Further, in [5] (setting [14]), the “dose proportionality of Cmax” value is “slightly less than dose-proportional increase” and the “dose proportionality of exposure (AUCtau)” value is on record as “slightly more than dose-proportional increase”. In addition, the Tmax in data set [5] (momelotinib analyte, momelotinib 100 mg BID + erlotinib, n = 4) is reported as 1.0 (1.0, 1.5) h. Besides, in [5] (momelotinib analyte, momelotinib 100 mg QD + erlotinib, n = 2), the Tmax is reported as 1.0 (1.0, 1.0) h. Further, the “time to momelotinib peak concentration after dosing” value in data set [5] (steady state, day 15 of cycle 1, with erlotinib) fell in the range of 1 to 2 h. In addition, in data set [5] (setting [15]), the “momelotinib maximum concentration and exposure compared with earlier reports” value is on record as “higher than previously reported”; the “momelotinib terminal elimination half-life compared with earlier reports” value is reported as “prolonged”. Moreover, the “pSTAT3 inhibition in IL-6–stimulated lymphocytes” value in [6] (after 2 weeks on treatment) is on record as “temporarily inhibited pSTAT3 shortly after dosing”. For the same compound, the “correlation between total plasma momelotinib concentration and pSTAT3 inhibition” value in data set [6] was “no correlation”. In [7], the EC50 was 259 nM. Moreover, in data set [8], the “impact of momelotinib on the PK of erlotinib” value is on record as “no impact”. The “efficacy vs historical control trametinib monotherapy” value in [9] (momelotinib added to trametinib, KRAS-mutated NSCLC) was “did not improve efficacy”. Besides, in data set [9] (momelotinib dosed up to 150 mg BID in combination with trametinib), the neutropenia entry is listed as “no neutropenia event”.

Turning to `Cc1cc(Nc2nc(N[C@@H](C)c3ncc(F)cn3)ncc2Cl)n[nH]1` [AZD1480], in data set [10] (PC-9 xenograft tumors and EGFR-mutant transgenic mice), the single-agent activity entry is listed as “independent activity”. In [10], the “number of lung tumors” value is given as “decreased number of lung tumors” and the overall survival entry was “improved overall survival”.

For the compound `N#CCC1(n2cc(-c3ncnc4[nH]ccc34)cn2)CN(C2CCN(C(=O)c3ccnc(C(F)(F)F)c3F)CC2)C1` [itacitinib], the single-agent activity entry in data set [11] (HCC827 xenograft model) is on record as “independent activity”. Moreover, the “tumor growth inhibition in combination” value in [11] (itacitinib in combination with erlotinib or osimertinib) was “synergistic tumor growth inhibition”.
